According to paper PMC7072451, “Membrane Binding of Neuronal Calcium Sensor-1: Highly Specific Interaction with Phosphatidylinositol-3-Phosphate” (Biomolecules, 2020):

Biological target: T1, myristoylated NCS-1 (NCS-1^WT) (Homo sapiens, UniProt P62166)
T1 construct: gene NCS1; full-length, N-myristoylated by co-expressed yeast NMT in E. coli (pET22b+), sulfo-cyanine-3 maleimide labelled; unlabelled protein used as titrant
Assay: fluorescence correlation spectroscopy, titration of PI liposomes with unlabelled protein
Format: binding
Conditions: Ca2+ present (1 mM CaCl2), pH 8.0, 100 mM NaCl; multilamellar liposomes of brain PI; concentration is of the protein; highly cooperative; sulfo-cyanine-3 labelled protein; read-out: dissociation constant

T1 sequence (P62166 2-190): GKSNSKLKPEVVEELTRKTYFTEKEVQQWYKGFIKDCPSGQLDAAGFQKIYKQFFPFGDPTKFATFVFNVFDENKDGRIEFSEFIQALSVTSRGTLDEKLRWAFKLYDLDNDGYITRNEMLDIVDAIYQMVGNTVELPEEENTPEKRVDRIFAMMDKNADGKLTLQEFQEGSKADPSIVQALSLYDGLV

Kd: 3000 nM
Substance: phosphatidylinositol
